The results in this text go back to the supplement of paper PMC6965134.

The data set can be described thus: TIMS collisional cross section (CCS, N2) of the lipid ion; higher = larger ion cross section. The settings on record: ion (formula + adduct): [C42H78NO8P+HCOO] 1-, ionization mode: negative, one isomer drawn. As for the experimental part:
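Lipid extracts of human plasma (NIST SRM 1950), mouse liver or HeLa cells were separated by nanoflow C18 LC (30 min gradient) and analysed by TIMS-PASEF on a timsTOF Pro. Ion mobility was calibrated with the Agilent tuning mix (negative mode ions) and converted to collisional cross sections (Mason–Schamp, N2).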

SMILES strings stand for the structures. ± gives the standard deviation of the averaged measurements.
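Note: lipids from MTBE extraction, five replicate injections per sample, 100 ms TIMS ramp spanning 0.6–1.95 Vs/cm², lipid identity assigned from PASEF MS/MS spectra.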

As to `CCCCC/C=C\C/C=C\C/C=C\CCCCC(=O)O[C@H](COC(=O)CCCCCCCCCCCCCCC)COP(=O)([O-])OCC[N+](C)(C)C` [PC 16:0_18:3], the “TIMS collisional cross section” value worked out at 289.9 Å² (sample type: Human plasma) and 289.15 ± 0.21 Å² (sample type: Mouse Liver).
